Laboratory results taken from patent US9243254B2, “Method for transforming a bacterium belonging to the streptococcus genus by natural competence” (priority 2009, dated 2016).

Tests used:
[1] = system: LMD9-Δblp::PcomX-luxABΔshp316::P32-cat; assay: Natural transformation in CDM of the shp316-deleted strain upon addition of synthetic peptides (test A); type: cell-based, Streptococcus thermophilus; conditions: for Transformation rate, With peptide addition / Restoration of the competence defect: 1 μM synthetic peptide; for Transformation rate, With peptide addition / Transformation rate: 1 μg/mL pGIUD0855ery; for Transformation rate, With peptide addition: CDM, erythromycin selection
Description: A mutant strain of LMD-9 in which the shp316 gene (which is the gene encoding the peptide Shp316) has been inactivated, such as strain LMD9-Δblp::PcomX-luxABΔshp316::P32-cat (see Example 2 for details on this strain) is pre-cultivated in M17-lactose medium. The cells of the preculture are harvested (5000 g, 9 minutes, 20° C.) and washed twice in Chemically Defined Medium (CDM, see Annex I) and then resuspended in CDM. The washed cells are diluted in fresh CDM medium to obtain an optical density of 0.05 at 600 nm, and then incubated at 37° C. After 1.5 h of incubation, the culture is separated in 2 aliquots of 10 mL and 0 or 1000 nM of peptide are added in the culture samples. Finally, each 10 mL-aliquot is divided in 2 samples of 5 mL each. One of the 2 samples receives 1 μg/mL pGIUD0855ery, a plasmid bearing an erythromycin resistance gene. The competence phenotype of the samples is studied by performing natural transformation experiments as described in example 1. The cultures are grown for 6 hours and serial dilutions are plated on the surface of M17-lactose agar medium containing or not 2.5 μg/mL of erythromycin. The transformation rate in the presence or absence of peptide is calculated for each sample; it is expressed as the ratio of erythromycin-resistant cells among the total bacterial population.
The experimental strategy is described below. Strain LMD9-Δblp::PcomX-luxABΔshp316::P32-cat is precultivated in M17-lactose medium. The cells of the preculture were harvested (5000 g, 9 minutes, 20° C.) and washed twice in CDM and then resuspended in CDM. The washed cells are diluted in fresh CDM to obtain an optical density of 0.05 at 600 nm, and then incubated at 37° C. After 1.5 h of incubation, in one set of experiment, 1 μM of one of the tested synthetic peptides and 1 μg/mL of pGIUD0855ery were added to the culture; whereas 1 μg/mL of pGIUD0855ery but no synthetic peptide was added to the second set of experiment. The cultures were grown during 6 hours and serial dilutions were plated on the surface of M17-lactose agar medium containing 2.5 μg/mL of erythromycin to measure transformation efficiency.
Ability of peptides derived from Shp316 to restore the competence defect of LMD9-Δblp::PcomX-luxABΔshp316::P32-cat was further investigated focusing on the synthetic peptide PYFAGCL. Experimental work was performed as described above except that various concentrations of PYFAGCL were used: 0 nM, 1 nM, 10 nM, 100 nM, 500 nM, 1 μM, 2.5 μM and 5 μM. […]

S. thermophilus LMD-9 = assay: Natural transformation in CDM upon addition of synthetic peptide; type: cell-based, Streptococcus thermophilus
Description: Similarly to the protocol used in example 4, strains LMD-9, LMG18311, CNRZ1066 and JIM8777 were pre-cultivated in M17-lactose medium. The cells of the precultures were harvested (5000 g, 9 minutes, 20° C.) and washed twice in CDM and then resuspended in CDM. The washed cells were diluted in fresh CDM medium to obtain an optical density of 0.05, and then incubated at 37° C. After 1.5 h of incubation, in one set of experiment, 1 μM of one of the tested synthetic peptides and 1 μg/mL of pGIUD0855ery DNA (in case of S. thermophilus strains), or 1 μg/ml of pG+host09 DNA (in case of S. salivarius strains) were added to the culture, whereas 1 μg/mL of DNA but no synthetic peptide was added to the second set of experiment. The cultures were grown during 6 hours and serial dilutions were plated on the surface of M17-lactose agar medium containing 2.5 μg/mL of erythromycin to measure transformation efficiency. Transformed S. thermophilus and S. salivarius cells are selected at 37° C. and 29° C., respectively.
Similarly to the protocol used in example 4, various S. thermophilus strains, including LMD-9, CNRZ1066 and LMG18311 used as controls, were pre-cultivated in M17-lactose medium. The cells of the precultures were harvested (5000 g, 9 minutes, 20° C.) and washed twice in CDM and then resuspended in CDM. The washed cells were diluted in fresh CDM medium to obtain an optical density of 0.05, and then incubated at 37° C. After 1.5 h of incubation, in one set of experiment, 1 μM of one of the tested synthetic peptides (LPYFAGCL) (SEQ ID NO: 85) and 1 μg/mL of pGIUD0855cat DNA were added to the culture, whereas 1 μg/mL of DNA but no synthetic peptide was added to the second set of experiment. Plasmid pGIUD0855cat is a pUC18-derivative containing a chloramphenicol resistance cassette flanked by 1-kb fragments corresponding to the upstream and downstream regions of stu0855. Upon transformation, it promotes the genetic replacement of stu0855 by P32-cat through homologous recombination (FIG. 7). The cultures were grown during 6 hours and serial dilutions were plated on the surface of M17-lactose agar medium containing 5 μg/mL of chloramphenicol to measure transformation efficiency. Transformed S. thermophilus cells were selected at 37° C.; when transformants were obtained, the transformation efficiency was calculated and is given in Table 9.
The overlapping PCR product was transferred through natural competence in strain LMD-9. Similarly to the protocol used in example 4, strain LMD-9 was pre-cultivated in M17-lactose medium. The cells of the precultures were harvested (5000 g, 9 minutes, 20° C.) and washed twice in CDM and then resuspended in CDM. The washed cells were diluted in fresh CDM medium to obtain an optical density of 0.05, and then incubated at 37° C. After 1.5 hour of incubation, 1 μM of LPYFAGCL (SEQ ID NO: 85) synthetic peptide and 1 μg/mL of the PCR product prepared above (joining the A, B and C fragments) were added to the culture. After the DNA uptake by the bacteria, the P32-cat cassette flanked by the two lox sites spontaneously replaces the his operon by double homologous recombination (FIG. 10). The transformation rate of the overlapping PCR was 1.1×10^−6 (160 Chloramphenicol-resistant CFU/mL). One isolate named CB15 was selected. […]

Substance | Transformation rate, With peptide addition [1] | Restoration of the competence defect ([1]; result in words) | Chloramphenicol-resistant CFU obtained with the overlapping PCR (S. thermophilus LMD-9; 1 μM LPYFAGCL, 1 μg/mL overlapping PCR product) | Transformation rate of the overlapping PCR (S. thermophilus LMD-9; 1 μM LPYFAGCL, 1 μg/mL overlapping PCR product (his operon replacement by lox66-P32cat-lox71)) | Transformation rate, With peptide addition (S. thermophilus LMD-9; 1 μM LPYFAGCL, 1 μg/mL pUC18_stu0855::P32cat, chloramphenicol selection) | Transformation rate ([1]; 1 nM PYFAGCL) | Transformation rate ([1]; 10 nM PYFAGCL) | Transformation rate ([1]; 100 nM PYFAGCL) | Transformation rate ([1]; 500 nM PYFAGCL) | Transformation rate ([1]; 1000 nM PYFAGCL) | Transformation rate ([1]; 2500 nM PYFAGCL) | Transformation rate ([1]; 5000 nM PYFAGCL) | Restoration of competence ([1]; concentrations lower than 100 nM, result in words) | Concentration at which maximum efficiency of the peptide was recorded ([1]; dose-response 0 nM to 5 μM) | Transformation rate, With peptide addition (S. thermophilus LMD-9; 1 μM PYFAGCL, 1 μg/mL pGIUD0855ery) | Increase of natural competence upon extracellular peptide addition (S. thermophilus LMD-9; 1 μM peptide in CDM versus no peptide)
LPYFAGCL (fragment) [synthetic peptide corresponding to a C-terminal fragment of Shp316] | 3.18 × 10^−3 | allowed to restore the competence defect | 160 CFU/mL | 1.1×10^−6 | 5.4 × 10^−3 | – | – | – | – | – | – | – | – | – | – | –
PYFAGCL (fragment) | 4.78 × 10^−3 | allowed to restore the competence defect | – | – | – | <10^−8 | <10^−8 | 4.14 × 10^−7 | 1.01 × 10^−3 | 5.15 × 10^−3 | 3.10 × 10^−3 | 6.38 × 10^−3 | did not restore the competence | 1 µM | 3.10 × 10^−3 | 10 fold
